Data as given in patent US6841701B2, “Inhibitors for the blood-clotting factor Xa” (Curacyte AG, priority 2000, dated 2005).
Counter-ions that a name gives are not always drawn. Like-named read-outs stand apart in the source and are kept apart here.

Columns and labels:
F Xa = F Xa (Homo sapiens, UniProt P00742); settings: cited from earlier work
human citrate plasma [1] = assay: Inhibition of the coagulation of human plasma: activated partial thromboplastin time (aPTT); format: biochemical
Procedure: (§1) Determination of the Inhibition of Coagulation
(§2) For the determination of the prothrombin time (PT), 100 μl of thromboplastin (Dade, Unterschleiβheim) and 100 μl of inhibitor, dissolved in CaCl2 (0.05 M, 5% ethanol) were incubated at 37° C. for 2 min and the coagulation was started by addition of 100 μl of human citrate plasma. For the determination of the activated partial thromboplastin time (aPTT), 100 μl of human citrate plasma were incubated with 100 μl of aPTT reagent (Roche Diagnostics, Mannheim) at 37° C. for 3 min and the coagulation was started by addition of 100 μl of inhibitor, dissolved in CaCl2 (0.05 M, 5% ethanol). The coagulation times were determined using the Thrombotrack coagulometer (Immuno, Heidelberg).

human citrate plasma [2] = assay: Inhibition of the coagulation of human plasma: prothrombin time (PT); format: biochemical
Procedure: as §1, §2

Sequence of F Xa (P00742 235-488 limits assumed): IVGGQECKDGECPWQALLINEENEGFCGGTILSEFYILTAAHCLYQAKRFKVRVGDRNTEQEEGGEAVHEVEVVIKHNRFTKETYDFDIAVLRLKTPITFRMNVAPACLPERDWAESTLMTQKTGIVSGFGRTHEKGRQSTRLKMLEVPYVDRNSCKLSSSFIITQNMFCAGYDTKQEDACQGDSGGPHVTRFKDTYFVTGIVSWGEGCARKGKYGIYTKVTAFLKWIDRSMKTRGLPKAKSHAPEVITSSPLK
Sequence of F Xa (P00742 41-179 partner limits assumed): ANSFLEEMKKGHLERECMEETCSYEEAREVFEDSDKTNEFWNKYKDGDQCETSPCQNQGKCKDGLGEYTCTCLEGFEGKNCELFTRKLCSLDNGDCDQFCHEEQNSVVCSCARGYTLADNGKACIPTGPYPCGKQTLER

Compound: N=C(N)c1ccc(C=C2CCCCC(=Cc3ccc(C(=N)N)cc3)C2=O)cc1 [BABCH]
- Ki (F Xa; literature): 13 nM

Compound: N=C(N)c1ccc(CNC(=O)CNC(=O)[C@@H](COCc2ccccc2)NS(=O)(=O)Cc2ccccc2)cc1 [Benzylsulfonyl-D-Ser(Bz)-Gly-4-amidinobenzylamide×TFA]
- Prolongation of the coagulation time (%) aPTT (human citrate plasma [1]; Concentration 0.1 μM): 111%
- Prolongation of the coagulation time (%) aPTT (human citrate plasma [1]; Concentration 0.21 μM): 122%
- Prolongation of the coagulation time (%) aPTT (human citrate plasma [1]; Concentration 0.42 μM): 146%
- Prolongation of the coagulation time (%) aPTT (human citrate plasma [1]; Concentration 0.83 μM): 185%
- Prolongation of the coagulation time (%) aPTT (human citrate plasma [1]; Concentration 1.7 μM): 260%
- Prolongation of the coagulation time (%) aPTT (human citrate plasma [1]; Concentration 3.3 μM): 385%
- Prolongation of the coagulation time (%) PT (human citrate plasma [2]; Concentration 0.1 μM): 119%
- Prolongation of the coagulation time (%) PT (human citrate plasma [2]; Concentration 0.21 μM): 127%
- Prolongation of the coagulation time (%) PT (human citrate plasma [2]; Concentration 0.42 μM): 153%
- Prolongation of the coagulation time (%) PT (human citrate plasma [2]; Concentration 0.83 μM): 198%
- Prolongation of the coagulation time (%) PT (human citrate plasma [2]; Concentration 1.7 μM): 266%
- Prolongation of the coagulation time (%) PT (human citrate plasma [2]; Concentration 3.3 μM): 386%

Compound: N=C(N)c1ccc(CNC(=O)[C@@H]2CCN2C(=O)[C@H](NCC(=O)O)C2CCCCC2)cc1 [melagatran]
- Ki (F Xa; literature (Gustafsson et al. 1996)): 2800 nM
